Source: US10369138B2, “Monobactam organic compounds for the treatment of bacterial infections” (Novartis AG, priority 2014, dated 2019)
Values after ≈ are worked out from the molar mass of the structure shown.

Assays:
E. coli containing KPC-2 = assay: MIC by broth microdilution, E. coli containing KPC-2 (Ec KPC2 Iso); format: cell-based; settings: Escherichia coli, read-out: Ec KPC2 Iso (MIC), E. coli containing KPC-2 (carbapenemase from Klebsiella pneumoniae)
Outline: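 Host E. coli BW25113 pspB carrying multicopy pBAD18-kan plasmid with constitutive TEM-promoter KPC-2 expression (periplasmic signal sequence); broth microdilution per CLSI in cation-adjusted Mueller-Hinton broth, inoculum ~5×10^5 CFU/mL, compounds twofold serially diluted from DMSO masters (10% DMSO in dilution series added).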

E. coli strain 25922 = assay: MIC by broth microdilution, E. coli strain 25922; format: cell-based; settings: Escherichia coli, 25922, E. coli strain 25922; read-out: Ec 25922 (MIC)
Outline: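 CLSI broth microdilution in cation-adjusted Mueller-Hinton broth, inoculum about 5×10^5 CFU/mL, 10% DMSO from the diluted series, 20 h at 35-37° C. MIC is the lowest concentration preventing visible growth, read by eye and at 600 nm.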

SMILES: CNCCCNCc1cnn(C[C@@H]2[C@H](NC(=O)/C(=N\OC3(C(=O)O)CC3)c3csc(N)n3)C(=O)N2S(=O)(=O)O)n1 [Example 116, 1-(((Z)-(1-(2-aminothiazol-4-yl)-2-(((2R,3S)-2-((4-(((3-(methylamino)propyl)amino)methyl)-2H-1,2,3-triazol-2-yl)methyl)-4-oxo-1-sulfoazetidin-3-yl)amino)-2-oxoethylidene)amino)oxy)cyclopropanecarboxylic acid]
- MIC (E. coli containing KPC-2): 0.125 µg/mL (≈ 0.208 µM)
- MIC (E. coli strain 25922): 0.25 µg/mL (≈ 0.416 µM)

SMILES: CNCCNCc1cnn(C[C@@H]2[C@H](NC(=O)/C(=N\OC3(C(=O)O)CC3)c3csc(N)n3)C(=O)N2S(=O)(=O)O)n1 [Example 117, 1-(((Z)-(1-(2-aminothiazol-4-yl)-2-(((2R,3S)-2-((4-(((2-(methylamino)ethyl)amino)methyl)-2H-1,2,3-triazol-2-yl)methyl)-4-oxo-1-sulfoazetidin-3-yl)amino)-2-oxoethylidene)amino)oxy)cyclopropanecarboxylic acid]
- MIC (E. coli containing KPC-2): 1 µg/mL (≈ 1.7 µM)
- MIC (E. coli strain 25922): 0.5 µg/mL (≈ 0.852 µM)

SMILES: NCCCCNCc1cnn(C[C@@H]2[C@H](NC(=O)/C(=N\OC3(C(=O)O)CC3)c3csc(N)n3)C(=O)N2S(=O)(=O)O)n1 [Example 118, 1-(((Z)-(2-(((2R,3S)-2-((4-(((4-aminobutyl)amino)methyl)-2H-1,2,3-triazol-2-yl)methyl)-4-oxo-1-sulfoazetidin-3-yl)amino)-1-(2-aminothiazol-4-yl)-2-oxoethylidene)amino)oxy)cyclopropanecarboxylic acid]
- MIC (E. coli containing KPC-2): 0.25 µg/mL (≈ 0.416 µM)
- MIC (E. coli strain 25922): 0.5 µg/mL (≈ 0.832 µM)

SMILES: N=C(NCCCN)NCc1cnn(C[C@@H]2[C@H](NC(=O)/C(=N\OC3(C(=O)O)CC3)c3csc(N)n3)C(=O)N2S(=O)(=O)O)n1 [Example 119, 1-(((Z)-(2-(((2R,3S)-2-((4-((3-(3-aminopropyl)guanidino)methyl)-2H-1,2,3-triazol-2-yl)methyl)-4-oxo-1-sulfoazetidin-3-yl)amino)-1-(2-aminothiazol-4-yl)-2-oxoethylidene)amino)oxy)cyclopropanecarboxylic acid]
- MIC (E. coli containing KPC-2): 0.25 µg/mL (≈ 0.398 µM)
- MIC (E. coli strain 25922): 0.25 µg/mL (≈ 0.398 µM)

SMILES: N=C(NCCCN)NCc1cn(C[C@@H]2[C@H](NC(=O)/C(=N\OC3(C(=O)O)CC3)c3csc(N)n3)C(=O)N2S(=O)(=O)O)nn1 [Example 120, 1-(((Z)-(2-(((2R,3S)-2-((4-((3-(3-aminopropyl)guanidino)methyl)-1H-1,2,3-triazol-1-yl)methyl)-4-oxo-1-sulfoazetidin-3-yl)amino)-1-(2-aminothiazol-4-yl)-2-oxoethylidene)amino)oxy)cyclopropanecarboxylic acid]
- MIC (E. coli containing KPC-2): 0.5 µg/mL (≈ 0.795 µM)
- MIC (E. coli strain 25922): 0.25 µg/mL (≈ 0.398 µM)

SMILES: CC(C)(O/N=C(\C(=O)N[C@@H]1C(=O)N(S(=O)(=O)O)[C@@H]1CN1C(=O)CCC1=O)c1csc(N)n1)C(=O)O [Example 121, 2-(((Z)-(1-(2-aminothiazol-4-yl)-2-(((2R,3S)-2-((2,5-dioxopyrrolidin-1-yl)methyl)-4-oxo-1-sulfoazetidin-3-yl)amino)-2-oxoethylidene)amino)oxy)-2-methylpropanoic acid]
- MIC (E. coli containing KPC-2): 0.25 µg/mL (≈ 0.469 µM)
- MIC (E. coli strain 25922): 0.25 µg/mL (≈ 0.469 µM)

SMILES: C[N+](C)(C)CCCNCc1cnn(C[C@@H]2[C@H](NC(=O)/C(=N\OC3(C(=O)O)CC3)c3csc(N)n3)C(=O)N2S(=O)(=O)O)n1 [Example 123, 3-(((2-(((2R,3S)-3-((Z)-2-(2-aminothiazol-4-yl)-2-((1-carboxycyclopropoxy)imino)acetamido)-4-oxo-1-sulfoazetidin-2-yl)methyl)-2H-1,2,3-triazol-4-yl)methyl)amino)-N,N,N-trimethylpropan-1-aminium]
- MIC (E. coli containing KPC-2): 0.5 µg/mL
- MIC (E. coli strain 25922): 1 µg/mL

SMILES: N=C(NCc1cnn(C[C@@H]2[C@H](NC(=O)/C(=N\OC3(C(=O)O)CC3)c3csc(N)n3)C(=O)N2S(=O)(=O)O)n1)N[C@H]1C[C@H](N)C1 [Example 125, 1-(((Z)-(2-(((2R,3S)-2-((4-((3-((1 r,3R)-3-aminocyclobutyl)guanidino)methyl)-2H-1,2,3-triazol-2-yl)methyl)-4-oxo-1-sulfoazetidin-3-yl)amino)-1-(2-aminothiazol-4-yl)-2-oxoethylidene)amino)oxy)cyclopropanecarboxylic acid]
- MIC (E. coli containing KPC-2): 0.5 µg/mL (≈ 0.78 µM)
- MIC (E. coli strain 25922): 0.25 µg/mL (≈ 0.39 µM)
